Assay results taken from ChEMBL document CHEMBL5303766, “Data for DCP probe FHT-2344” (2022).

Columns and labels:
[1] = molecular target: SRSF protein kinase 1 (Homo sapiens) (UniProt Q96SB4); assay: SRPK1 SGC Tm panel (DSF); conditions: for ΔTm: Compound concentration 10.0 uM
[2] = molecular target: Fibroblast growth factor receptor 3 (Homo sapiens) (UniProt P22607); assay: FGFR3 SGC Tm panel (DSF); conditions: for ΔTm: Compound concentration 10.0 uM
[3] = molecular target: Maternal embryonic leucine zipper kinase (Homo sapiens) (UniProt Q14680); assay: MELK SGC Tm panel (DSF); conditions: for ΔTm: Compound concentration 10.0 uM
[4] = molecular target: 5-hydroxytryptamine receptor 1A (Homo sapiens) (UniProt P08908); conditions: Compound concentration 10.0 uM
[5] = molecular target: Serine/threonine-protein kinase 24 (Homo sapiens) (UniProt Q9Y6E0); assay: MST3 SGC Tm panel (DSF); conditions: for ΔTm: Compound concentration 10.0 uM
[6] = molecular target: Alpha-1B adrenergic receptor (Homo sapiens) (UniProt P35368); conditions: Compound concentration 10.0 uM
[7] = molecular target: T1, Phosphorylase b kinase gamma catalytic chain, liver/testis isoform (Homo sapiens) (UniProt P15735); assay: PHKG2 SGC Tm panel (DSF); conditions: for ΔTm: Compound concentration 10.0 uM
T1 sequence (whole entry): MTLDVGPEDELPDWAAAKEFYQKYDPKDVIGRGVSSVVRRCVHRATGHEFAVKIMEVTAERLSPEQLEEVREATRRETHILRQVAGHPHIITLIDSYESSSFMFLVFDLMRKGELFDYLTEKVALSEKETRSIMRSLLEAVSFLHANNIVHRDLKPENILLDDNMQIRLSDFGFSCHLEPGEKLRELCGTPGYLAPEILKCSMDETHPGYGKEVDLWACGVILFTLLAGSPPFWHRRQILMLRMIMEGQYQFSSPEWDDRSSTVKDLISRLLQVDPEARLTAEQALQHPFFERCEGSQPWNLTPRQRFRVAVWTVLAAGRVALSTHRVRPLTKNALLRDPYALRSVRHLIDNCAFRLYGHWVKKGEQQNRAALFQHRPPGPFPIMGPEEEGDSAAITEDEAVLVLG

[8] = molecular target: Sigma intracellular receptor 2 (Homo sapiens) (UniProt Q5BJF2); conditions: Compound concentration 10.0 uM
[9] = molecular target: Serine/threonine-protein kinase B-raf (Homo sapiens) (UniProt P15056); assay: BRAF SGC Tm panel (DSF); conditions: for ΔTm: Compound concentration 10.0 uM
[10] = molecular target: D(1A) dopamine receptor (Homo sapiens) (UniProt P21728); conditions: Compound concentration 10.0 uM
[11] = molecular target: T2, Transcription intermediary factor 1-alpha (Homo sapiens) (UniProt O15164); assay: TIF1 SGC Tm panel (DSF); conditions: for ΔTm: Compound concentration 10.0 uM
T2 sequence (whole entry): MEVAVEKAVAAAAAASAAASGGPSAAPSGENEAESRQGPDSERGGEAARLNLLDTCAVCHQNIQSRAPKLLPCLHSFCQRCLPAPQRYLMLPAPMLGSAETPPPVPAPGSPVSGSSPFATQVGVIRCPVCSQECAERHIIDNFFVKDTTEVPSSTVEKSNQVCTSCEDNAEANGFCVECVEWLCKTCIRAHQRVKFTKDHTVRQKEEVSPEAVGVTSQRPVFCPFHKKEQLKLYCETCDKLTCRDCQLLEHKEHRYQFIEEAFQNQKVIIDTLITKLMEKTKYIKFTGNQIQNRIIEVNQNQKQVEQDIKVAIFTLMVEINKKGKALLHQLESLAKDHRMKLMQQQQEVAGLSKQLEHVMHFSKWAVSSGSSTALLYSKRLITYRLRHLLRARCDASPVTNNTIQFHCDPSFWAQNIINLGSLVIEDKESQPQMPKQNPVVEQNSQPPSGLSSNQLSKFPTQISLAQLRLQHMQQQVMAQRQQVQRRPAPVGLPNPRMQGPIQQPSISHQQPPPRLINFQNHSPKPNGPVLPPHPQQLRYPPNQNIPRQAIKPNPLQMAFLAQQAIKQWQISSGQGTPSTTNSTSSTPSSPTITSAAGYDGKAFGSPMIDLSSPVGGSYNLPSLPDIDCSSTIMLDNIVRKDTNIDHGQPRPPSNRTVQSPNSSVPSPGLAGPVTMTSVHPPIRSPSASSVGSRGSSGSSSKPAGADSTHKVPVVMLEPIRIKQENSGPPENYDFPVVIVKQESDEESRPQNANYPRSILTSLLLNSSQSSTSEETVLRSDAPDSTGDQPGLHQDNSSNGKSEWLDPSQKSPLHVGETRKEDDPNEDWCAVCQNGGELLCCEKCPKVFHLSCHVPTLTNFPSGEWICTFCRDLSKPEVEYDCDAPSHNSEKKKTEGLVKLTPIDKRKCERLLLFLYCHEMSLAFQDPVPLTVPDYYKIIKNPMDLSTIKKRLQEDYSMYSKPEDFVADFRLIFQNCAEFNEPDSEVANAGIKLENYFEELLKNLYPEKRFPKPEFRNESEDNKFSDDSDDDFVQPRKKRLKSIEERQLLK

[12] = molecular target: MAP kinase-activated protein kinase 2 (Homo sapiens) (UniProt P49137); assay: MAPKAPK2 SGC Tm panel (DSF); conditions: for ΔTm: Compound concentration 10.0 uM
[13] = molecular target: Serine/threonine-protein kinase pim-3 (Homo sapiens) (UniProt Q86V86); assay: PIM3 SGC Tm panel (DSF); conditions: for ΔTm: Compound concentration 10.0 uM
[14] = molecular target: Mitogen-activated protein kinase 1 (Homo sapiens) (UniProt P28482); assay: MAPK1 SGC Tm panel (DSF); conditions: for ΔTm: Compound concentration 10.0 uM
[15] = molecular target: Serine/threonine-protein kinase pim-1 (Homo sapiens) (UniProt P11309); assay: PIM1 SGC Tm panel (DSF); conditions: for ΔTm: Compound concentration 10.0 uM
[16] = molecular target: Death-associated protein kinase 1 (Homo sapiens) (UniProt P53355); assay: DAPK1 SGC Tm panel (DSF); conditions: for ΔTm: Compound concentration 10.0 uM
[17] = molecular target: Serine/threonine-protein kinase PAK 4 (Homo sapiens) (UniProt O96013); assay: PAK4 SGC Tm panel (DSF); conditions: for ΔTm: Compound concentration 10.0 uM

Serine/threonine-protein kinase 24 (Homo sapiens), sequence (Q9Y6E0 whole entry, looked up): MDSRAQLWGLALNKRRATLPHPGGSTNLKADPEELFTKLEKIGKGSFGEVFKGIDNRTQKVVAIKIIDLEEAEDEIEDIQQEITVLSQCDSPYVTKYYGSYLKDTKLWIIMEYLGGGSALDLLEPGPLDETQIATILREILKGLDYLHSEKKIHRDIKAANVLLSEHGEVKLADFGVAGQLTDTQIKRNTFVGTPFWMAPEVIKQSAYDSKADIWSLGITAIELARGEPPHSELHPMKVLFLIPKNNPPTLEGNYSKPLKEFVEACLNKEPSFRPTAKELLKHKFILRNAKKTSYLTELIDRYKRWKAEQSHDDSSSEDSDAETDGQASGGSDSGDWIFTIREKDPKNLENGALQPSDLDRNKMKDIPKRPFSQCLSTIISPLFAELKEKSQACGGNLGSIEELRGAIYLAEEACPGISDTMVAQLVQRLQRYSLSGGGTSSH
SRSF protein kinase 1 (Homo sapiens), sequence (Q96SB4 whole entry): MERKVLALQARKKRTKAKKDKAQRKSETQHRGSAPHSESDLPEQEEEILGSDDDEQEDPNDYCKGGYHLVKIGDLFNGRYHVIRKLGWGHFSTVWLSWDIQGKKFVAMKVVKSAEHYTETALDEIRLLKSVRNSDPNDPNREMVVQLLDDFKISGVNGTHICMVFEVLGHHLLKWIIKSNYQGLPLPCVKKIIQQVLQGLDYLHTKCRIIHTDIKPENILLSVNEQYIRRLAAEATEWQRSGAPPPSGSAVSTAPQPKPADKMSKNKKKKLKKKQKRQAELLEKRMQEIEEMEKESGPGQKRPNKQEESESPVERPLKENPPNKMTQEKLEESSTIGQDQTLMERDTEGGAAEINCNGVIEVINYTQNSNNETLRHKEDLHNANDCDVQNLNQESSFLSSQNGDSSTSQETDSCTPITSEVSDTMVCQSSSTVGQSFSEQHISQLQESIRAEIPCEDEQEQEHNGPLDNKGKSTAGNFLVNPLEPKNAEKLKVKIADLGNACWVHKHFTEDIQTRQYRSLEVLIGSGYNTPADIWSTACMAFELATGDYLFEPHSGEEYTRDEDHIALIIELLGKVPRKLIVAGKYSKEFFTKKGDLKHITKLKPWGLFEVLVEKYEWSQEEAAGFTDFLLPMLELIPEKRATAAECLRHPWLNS
Serine/threonine-protein kinase B-raf (Homo sapiens), sequence (P15056 whole entry): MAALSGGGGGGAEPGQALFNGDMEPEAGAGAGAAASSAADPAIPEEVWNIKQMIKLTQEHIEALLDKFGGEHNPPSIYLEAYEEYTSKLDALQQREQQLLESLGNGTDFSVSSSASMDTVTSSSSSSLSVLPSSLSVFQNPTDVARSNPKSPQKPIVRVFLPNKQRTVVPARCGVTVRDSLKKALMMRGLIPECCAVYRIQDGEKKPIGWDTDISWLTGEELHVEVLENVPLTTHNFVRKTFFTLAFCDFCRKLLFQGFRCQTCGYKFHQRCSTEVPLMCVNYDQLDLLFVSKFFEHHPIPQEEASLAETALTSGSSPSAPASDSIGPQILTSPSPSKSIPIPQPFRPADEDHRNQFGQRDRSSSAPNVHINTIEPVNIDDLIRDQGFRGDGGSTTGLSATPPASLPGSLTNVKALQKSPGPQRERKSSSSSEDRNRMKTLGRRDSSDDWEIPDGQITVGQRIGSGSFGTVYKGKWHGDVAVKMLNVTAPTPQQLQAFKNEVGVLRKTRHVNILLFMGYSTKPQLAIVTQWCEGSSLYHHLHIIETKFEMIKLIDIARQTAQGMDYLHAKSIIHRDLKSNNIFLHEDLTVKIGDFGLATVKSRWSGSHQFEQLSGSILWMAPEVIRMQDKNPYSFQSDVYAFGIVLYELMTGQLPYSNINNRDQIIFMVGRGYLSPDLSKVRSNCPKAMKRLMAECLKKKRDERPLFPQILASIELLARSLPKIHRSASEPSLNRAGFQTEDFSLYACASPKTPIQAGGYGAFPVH
Mitogen-activated protein kinase 1 (Homo sapiens), sequence (P28482 whole entry): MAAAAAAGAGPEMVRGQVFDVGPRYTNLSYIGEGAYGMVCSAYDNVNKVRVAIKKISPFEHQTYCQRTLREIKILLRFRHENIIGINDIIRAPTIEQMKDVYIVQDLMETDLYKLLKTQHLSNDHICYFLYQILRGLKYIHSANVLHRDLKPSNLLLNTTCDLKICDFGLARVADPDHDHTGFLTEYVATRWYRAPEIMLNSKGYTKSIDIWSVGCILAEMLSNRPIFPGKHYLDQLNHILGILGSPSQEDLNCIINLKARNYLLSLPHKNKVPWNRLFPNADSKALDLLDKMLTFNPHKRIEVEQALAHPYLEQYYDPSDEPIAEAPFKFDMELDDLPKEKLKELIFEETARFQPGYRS
Maternal embryonic leucine zipper kinase (Homo sapiens), sequence (Q14680 whole entry, looked up): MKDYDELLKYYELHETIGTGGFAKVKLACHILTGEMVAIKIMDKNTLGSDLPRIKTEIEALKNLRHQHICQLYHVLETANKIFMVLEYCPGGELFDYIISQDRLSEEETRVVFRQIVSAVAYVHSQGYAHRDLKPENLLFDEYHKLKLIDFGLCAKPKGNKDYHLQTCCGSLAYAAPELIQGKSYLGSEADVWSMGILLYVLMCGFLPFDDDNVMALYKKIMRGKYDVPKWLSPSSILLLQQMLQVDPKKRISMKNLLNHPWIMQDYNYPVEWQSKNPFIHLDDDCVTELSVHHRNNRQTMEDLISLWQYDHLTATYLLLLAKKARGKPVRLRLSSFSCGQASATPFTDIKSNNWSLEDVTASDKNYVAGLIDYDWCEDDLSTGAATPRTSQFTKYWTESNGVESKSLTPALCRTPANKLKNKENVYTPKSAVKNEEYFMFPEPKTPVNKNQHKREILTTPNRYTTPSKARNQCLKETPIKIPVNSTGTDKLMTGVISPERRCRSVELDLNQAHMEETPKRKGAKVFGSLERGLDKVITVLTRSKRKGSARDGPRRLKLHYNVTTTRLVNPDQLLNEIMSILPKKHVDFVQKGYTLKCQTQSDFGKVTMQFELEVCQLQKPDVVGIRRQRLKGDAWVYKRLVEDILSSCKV
Death-associated protein kinase 1 (Homo sapiens), sequence (P53355 whole entry, looked up): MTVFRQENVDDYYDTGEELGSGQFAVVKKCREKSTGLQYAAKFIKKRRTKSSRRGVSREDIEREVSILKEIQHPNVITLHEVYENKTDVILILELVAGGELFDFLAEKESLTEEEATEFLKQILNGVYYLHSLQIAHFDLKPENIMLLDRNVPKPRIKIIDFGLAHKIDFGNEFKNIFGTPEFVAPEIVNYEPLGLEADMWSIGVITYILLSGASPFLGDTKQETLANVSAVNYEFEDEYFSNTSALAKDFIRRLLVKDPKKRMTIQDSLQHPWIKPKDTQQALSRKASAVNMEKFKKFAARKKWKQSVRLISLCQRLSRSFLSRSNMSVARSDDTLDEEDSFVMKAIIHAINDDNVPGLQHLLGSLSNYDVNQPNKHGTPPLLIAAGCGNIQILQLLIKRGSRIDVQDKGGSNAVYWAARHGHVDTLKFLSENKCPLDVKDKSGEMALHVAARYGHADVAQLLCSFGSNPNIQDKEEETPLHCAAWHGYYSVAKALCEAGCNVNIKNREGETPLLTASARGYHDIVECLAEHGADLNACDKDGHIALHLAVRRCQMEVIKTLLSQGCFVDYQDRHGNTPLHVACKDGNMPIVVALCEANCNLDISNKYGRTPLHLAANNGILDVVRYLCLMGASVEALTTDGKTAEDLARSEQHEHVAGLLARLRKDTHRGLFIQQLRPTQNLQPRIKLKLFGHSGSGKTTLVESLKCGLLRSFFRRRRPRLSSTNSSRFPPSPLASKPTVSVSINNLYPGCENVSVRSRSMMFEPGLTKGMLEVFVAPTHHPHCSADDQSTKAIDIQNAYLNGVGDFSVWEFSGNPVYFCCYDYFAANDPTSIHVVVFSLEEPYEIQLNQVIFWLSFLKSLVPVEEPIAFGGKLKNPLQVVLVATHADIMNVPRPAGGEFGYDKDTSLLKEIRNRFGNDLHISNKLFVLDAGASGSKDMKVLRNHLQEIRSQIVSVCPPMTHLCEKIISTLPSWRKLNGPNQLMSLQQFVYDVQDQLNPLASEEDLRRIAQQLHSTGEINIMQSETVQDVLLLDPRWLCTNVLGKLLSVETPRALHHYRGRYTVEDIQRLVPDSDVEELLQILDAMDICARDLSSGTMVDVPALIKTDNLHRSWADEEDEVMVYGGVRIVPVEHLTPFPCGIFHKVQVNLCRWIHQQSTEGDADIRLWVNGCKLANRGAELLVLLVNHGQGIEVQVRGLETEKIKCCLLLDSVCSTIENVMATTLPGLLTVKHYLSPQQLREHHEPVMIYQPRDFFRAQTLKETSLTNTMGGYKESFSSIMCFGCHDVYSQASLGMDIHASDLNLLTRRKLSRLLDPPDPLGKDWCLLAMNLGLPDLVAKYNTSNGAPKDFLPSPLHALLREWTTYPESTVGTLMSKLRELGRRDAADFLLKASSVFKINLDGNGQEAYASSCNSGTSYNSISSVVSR
Serine/threonine-protein kinase pim-1 (Homo sapiens), sequence (P11309 whole entry, looked up): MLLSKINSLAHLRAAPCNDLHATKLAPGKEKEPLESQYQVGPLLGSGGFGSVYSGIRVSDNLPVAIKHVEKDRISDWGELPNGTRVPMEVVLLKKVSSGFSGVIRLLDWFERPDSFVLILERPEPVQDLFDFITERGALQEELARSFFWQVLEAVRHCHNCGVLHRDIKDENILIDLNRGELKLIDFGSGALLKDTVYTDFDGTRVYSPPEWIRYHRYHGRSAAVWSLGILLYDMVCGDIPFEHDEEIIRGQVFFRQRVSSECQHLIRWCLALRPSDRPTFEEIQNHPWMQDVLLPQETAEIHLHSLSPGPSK

Compound	delta Tm Staurosporine positive control [1]	ΔTm [1]	delta Tm Staurosporine positive control [2]	ΔTm [2]	delta Tm Staurosporine positive control [3]	ΔTm [3]	inhibition [4]	delta Tm Staurosporine positive control [5]	ΔTm [5]	inhibition [6]	delta Tm Staurosporine positive control [7]	ΔTm [7]	inhibition [8]	delta Tm Staurosporine positive control [9]	ΔTm [9]	inhibition [10]	delta Tm Staurosporine positive control [11]	ΔTm [11]	delta Tm Staurosporine positive control [12]	ΔTm [12]	other results
C[C@H](NC(=O)c1cn(C2(C#N)CC2)cn1)C(=O)Nc1nc(-c2cccc(-c3ccn(C)n3)c2)cs1	7.14	0.0203	11.8	1.77	14	0.116	23%	6.74	-1.99	8%	22.2	0.17	2.43%	0.63	-0.0339	38.9%	2.51	1.18	3.41	-9.54	delta Tm Staurosporine positive control [13]: 17.6; ΔTm [13]: 0.698; delta Tm Staurosporine positive control [14]: 1.98; ΔTm [14]: 0.442; delta Tm Staurosporine positive control [15]: 11.9; ΔTm [15]: -0.391; delta Tm Staurosporine positive control [16]: 9.19; ΔTm [16]: 0.0306; delta Tm Staurosporine positive control [17]: 13.4; ΔTm [17]: -0.0631
COC[C@H](NC(=O)c1ccn(S(C)(=O)=O)c1)C(=O)Nc1nc(-c2cccc(-c3ccn(C)n3)c2)cs1	7.14	0.728	11.8	0.361	14	-0.053	29.7%	6.74	-5.55	-5.17%	22.2	0.157	5.91%	0.63	-0.0136	30.9%	2.51	1.43	3.41	0.842	delta Tm Staurosporine positive control [13]: 17.6; ΔTm [13]: 0.116; delta Tm Staurosporine positive control [14]: 1.98; ΔTm [14]: 0.812; delta Tm Staurosporine positive control [15]: 11.9; ΔTm [15]: -0.353; delta Tm Staurosporine positive control [16]: 9.19; ΔTm [16]: -0.136; delta Tm Staurosporine positive control [17]: 13.4; ΔTm [17]: -0.0385
